According to PubChem BioAssay (NCI):
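Protocol summary: plate cells (96-well), add compound at 5 concentrations, incubate 48 h, interpolate endpoints linearly. TGI is the concentration that stops growth completely.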

Assays:
Experiment in all cases: DTP human tumour cell line panel, 48 h
RPMI-8226 leukemia = system: RPMI-8226 leukemia
U251 CNS = system: U251 CNS
M14 melanoma = system: M14 melanoma
HCT-116 colon = system: HCT-116 colon
SK-OV-3 ovarian = system: SK-OV-3 ovarian
PC-3 prostate = system: PC-3 prostate
BT-549 breast = system: BT-549 breast
SK-MEL-5 melanoma = system: SK-MEL-5 melanoma
UACC-62 melanoma = system: UACC-62 melanoma
DU-145 prostate = system: DU-145 prostate
SR leukemia = system: SR leukemia
EKVX NSCLC = system: EKVX NSCLC
COLO 205 colon = system: COLO 205 colon
HCC-2998 colon = system: HCC-2998 colon
SF-268 CNS = system: SF-268 CNS
LOX IMVI melanoma = system: LOX IMVI melanoma
HOP-62 NSCLC = system: HOP-62 NSCLC
SNB-75 CNS = system: SNB-75 CNS
HCT-15 colon = system: HCT-15 colon
OVCAR-3 ovarian = system: OVCAR-3 ovarian
RXF 393 renal = system: RXF 393 renal
IGROV1 ovarian = system: IGROV1 ovarian
HT29 colon = system: HT29 colon
OVCAR-4 ovarian = system: OVCAR-4 ovarian
SK-MEL-28 melanoma = system: SK-MEL-28 melanoma
A498 renal = system: A498 renal
T-47D breast = system: T-47D breast
OVCAR-8 ovarian = system: OVCAR-8 ovarian
MCF7 breast = system: MCF7 breast
NCI-H460 lung = system: NCI-H460 lung
KM12 colon = system: KM12 colon
K-562 leukemia = system: K-562 leukemia
HS 578T breast = system: HS 578T breast
A549 NSCLC = system: A549 NSCLC
OVCAR-5 ovarian = system: OVCAR-5 ovarian
NCI/ADR-RES ovarian = system: NCI/ADR-RES ovarian
MDA-MB-435 = system: MDA-MB-435
CCRF-CEM leukemia = system: CCRF-CEM leukemia
SF-295 CNS = system: SF-295 CNS
HL-60(TB) leukemia = system: HL-60(TB) leukemia
SF-539 CNS = system: SF-539 CNS
MDA-MB-231 breast = system: MDA-MB-231 breast
UACC-257 melanoma = system: UACC-257 melanoma
MDA-N = system: MDA-N
786-0 renal = system: 786-0 renal
SNB-19 CNS = system: SNB-19 CNS
SK-MEL-2 melanoma = system: SK-MEL-2 melanoma
SN12C renal = system: SN12C renal
ACHN renal = system: ACHN renal
CAKI-1 renal = system: CAKI-1 renal
UO-31 renal = system: UO-31 renal
HOP-92 NSCLC = system: HOP-92 NSCLC
MOLT-4 leukemia = system: MOLT-4 leukemia
TK-10 renal = system: TK-10 renal
SW-620 colon = system: SW-620 colon
NCI-H23 lung = system: NCI-H23 lung
MALME-3M melanoma = system: MALME-3M melanoma
NCI-H522 lung = system: NCI-H522 lung
NCI-H226 lung = system: NCI-H226 lung

SMILES: CSc1ccc(/C=C2\N=C(c3ccccc3)N(c3nc4c(Cl)cc(Cl)cc4s3)C2=O)cc1
- TGI (RPMI-8226 leukemia): > 100 µM
- TGI (U251 CNS): 37.3 µM
- TGI (M14 melanoma): 62.9 µM
- TGI (HCT-116 colon): 41.5 µM
- TGI (SK-OV-3 ovarian): 84.9 µM
- TGI (PC-3 prostate): 43.3 µM
- TGI (BT-549 breast): 63.5 µM
- TGI (SK-MEL-5 melanoma): 34.9 µM
- TGI (UACC-62 melanoma): 73.1 µM
- TGI (DU-145 prostate): 93.7 µM
- TGI (SR leukemia): 50.3 µM
- TGI (EKVX NSCLC): 49.9 µM
- TGI (COLO 205 colon): > 100 µM
- TGI (HCC-2998 colon): 94 µM
- TGI (SF-268 CNS): 86.3 µM
- TGI (LOX IMVI melanoma): 82.1 µM
- TGI (HOP-62 NSCLC): 39.7 µM
- TGI (SNB-75 CNS): 62 µM
- TGI (HCT-15 colon): > 100 µM
- TGI (OVCAR-3 ovarian): 40 µM
- TGI (RXF 393 renal): 67.5 µM
- TGI (IGROV1 ovarian): > 100 µM
- TGI (HT29 colon): 46.4 µM
- TGI (OVCAR-4 ovarian): 58.4 µM
- TGI (SK-MEL-28 melanoma): > 100 µM
- TGI (A498 renal): 40.8 µM
- TGI (T-47D breast): 98.4 µM
- TGI (OVCAR-8 ovarian): > 100 µM
- TGI (MCF7 breast): > 100 µM
- TGI (NCI-H460 lung): > 100 µM
- TGI (KM12 colon): 88.6 µM
- TGI (K-562 leukemia): > 100 µM
- TGI (HS 578T breast): 64.6 µM
- TGI (A549 NSCLC): 53.4 µM
- TGI (OVCAR-5 ovarian): > 100 µM
- TGI (NCI/ADR-RES ovarian): 68.2 µM
- TGI (MDA-MB-435): 43.2 µM
- TGI (CCRF-CEM leukemia): 43.3 µM
- TGI (SF-295 CNS): 79.7 µM
- TGI (HL-60(TB) leukemia): 69.7 µM
- TGI (SF-539 CNS): > 100 µM
- TGI (MDA-MB-231 breast): 62.5 µM
- TGI (UACC-257 melanoma): > 100 µM
- TGI (MDA-N): 36.1 µM
- TGI (786-0 renal): > 100 µM
- TGI (SNB-19 CNS): > 100 µM
- TGI (SK-MEL-2 melanoma): 41.4 µM
- TGI (SN12C renal): 56.3 µM
- TGI (ACHN renal): 68.5 µM
- TGI (CAKI-1 renal): > 100 µM
- TGI (UO-31 renal): 47.9 µM
- TGI (HOP-92 NSCLC): > 100 µM
- TGI (MOLT-4 leukemia): 49.5 µM
- TGI (TK-10 renal): > 100 µM
- TGI (SW-620 colon): > 100 µM

SMILES: O=c1[nH]c(Nc2cccc(Br)c2)nc2nc[nH]c12
- TGI (RPMI-8226 leukemia): > 100 µM
- TGI (M14 melanoma): > 100 µM
- TGI (HCT-116 colon): > 100 µM
- TGI (SK-OV-3 ovarian): > 100 µM
- TGI (NCI-H23 lung): > 100 µM
- TGI (PC-3 prostate): > 100 µM
- TGI (BT-549 breast): > 100 µM
- TGI (SK-MEL-5 melanoma): > 100 µM
- TGI (UACC-62 melanoma): > 100 µM
- TGI (DU-145 prostate): > 100 µM
- TGI (SR leukemia): > 100 µM
- TGI (EKVX NSCLC): > 100 µM
- TGI (COLO 205 colon): > 100 µM
- TGI (HCC-2998 colon): > 100 µM
- TGI (SF-268 CNS): > 100 µM
- TGI (LOX IMVI melanoma): > 100 µM
- TGI (SNB-75 CNS): > 100 µM
- TGI (HCT-15 colon): > 100 µM
- TGI (OVCAR-3 ovarian): > 100 µM
- TGI (RXF 393 renal): > 100 µM
- TGI (IGROV1 ovarian): > 100 µM
- TGI (HT29 colon): > 100 µM
- TGI (OVCAR-4 ovarian): > 100 µM
- TGI (SK-MEL-28 melanoma): > 100 µM
- TGI (T-47D breast): > 100 µM
- TGI (OVCAR-8 ovarian): > 100 µM
- TGI (MCF7 breast): > 100 µM
- TGI (NCI-H460 lung): > 100 µM
- TGI (KM12 colon): > 100 µM
- TGI (K-562 leukemia): > 100 µM
- TGI (HS 578T breast): > 100 µM
- TGI (A549 NSCLC): > 100 µM
- TGI (OVCAR-5 ovarian): > 100 µM
- TGI (MALME-3M melanoma): > 100 µM
- TGI (NCI-H522 lung): > 100 µM
- TGI (NCI/ADR-RES ovarian): > 100 µM
- TGI (MDA-MB-435): > 100 µM
- TGI (CCRF-CEM leukemia): > 100 µM
- TGI (SF-295 CNS): > 100 µM
- TGI (HL-60(TB) leukemia): > 100 µM
- TGI (NCI-H226 lung): > 100 µM
- TGI (MDA-MB-231 breast): > 100 µM
- TGI (UACC-257 melanoma): > 100 µM
- TGI (MDA-N): > 100 µM
- TGI (786-0 renal): > 100 µM
- TGI (SNB-19 CNS): > 100 µM
- TGI (SK-MEL-2 melanoma): > 100 µM
- TGI (ACHN renal): > 100 µM
- TGI (CAKI-1 renal): > 100 µM
- TGI (UO-31 renal): > 100 µM
- TGI (HOP-92 NSCLC): > 100 µM
- TGI (MOLT-4 leukemia): > 100 µM
- TGI (TK-10 renal): > 100 µM
- TGI (SW-620 colon): > 100 µM
